{"source": "patent US10183914B2", "about": "(BAYER CROPSCIENCE AKTIENGESELLSCHAFT, priority 2014, dated 2019)", "key": {"[1]": {"system": "Triticum aestivum (spring)", "test": "Post-emergence herbicidal effect and crop plant compatibility", "assay_type": "in vivo", "conditions": "visual scoring after about 3 weeks", "procedure,_shortened": "(§1)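 After growing for 2 to 3 weeks from seed in sandy loam, plants at the one-leaf stage get an aqueous spray of the formulated compound containing 0.2% wetting agent. Around three weeks later each pot is assessed by eye, expressed as percent effect compared with untreated plants.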"}, "[2]": {"test": "logp (HCOOH), physicochemical characterization"}, "[3]": {"system": "Triticum aestivum (spring)", "test": "Pre-emergence herbicidal effect and crop plant compatibility", "assay_type": "in vivo", "conditions": "3 weeks", "procedure,_shortened": "(§2)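 Pre-emergence greenhouse test: seeds sown in sandy loam, compounds (WP or EC) sprayed onto covering soil as aqueous suspension/emulsion at 600 to 800 L/ha water with 0.2% wetting agent. Damage scored visually after 3 weeks versus untreated controls as percent efficacy (100% = plants dead).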"}, "[4]": {"system": "Zea mays", "test": "Pre-emergence herbicidal effect and crop plant compatibility", "assay_type": "in vivo", "conditions": "80 g/ha, 3 weeks", "procedure,_shortened": "as §2"}, "[5]": {"system": "Lolium multiflorum", "test": "Post-emergence herbicidal effect", "assay_type": "in vivo", "conditions": "320 g/ha, visual scoring after about 3 weeks", "procedure,_shortened": "as §1"}, "[6]": {"system": "Echinochloa crus-galli", "test": "Post-emergence herbicidal effect", "assay_type": "in vivo", "conditions": "visual scoring after about 3 weeks", "procedure,_shortened": "as §1"}, "[7]": {"system": "Alopecurus myosuroides", "test": "Post-emergence herbicidal effect", "assay_type": "in vivo", "conditions": "320 g/ha, visual scoring after about 3 weeks", "procedure,_shortened": "as §1"}, "[8]": {"system": "Setaria viridis", "test": "Post-emergence herbicidal effect", "assay_type": "in vivo", "conditions": "320 g/ha (dose by row order of upper half), scoring after about 3 weeks", "procedure,_shortened": "as §1"}, "[9]": {"system": "Ipomoea purpurea", "test": "Post-emergence herbicidal effect", "assay_type": "in vivo", "conditions": "320 g/ha (dose by row order of upper half), scoring after about 3 weeks", "procedure,_shortened": "as §1"}, "[10]": {"system": "Viola tricolor", "test": "Pre-emergence herbicidal effect", "assay_type": "in vivo", "conditions": "3 weeks", "procedure,_shortened": "as §2"}, "[11]": {"system": "Lolium multiflorum", "test": "Pre-emergence herbicidal effect", "assay_type": "in vivo", "conditions": "3 weeks", "procedure,_shortened": "as §2"}, "[12]": {"system": "Veronica persica", "test": "Pre-emergence herbicidal effect", "assay_type": "in vivo", "conditions": "3 weeks", "procedure,_shortened": "as §2"}, "[13]": {"system": "Matricaria inodora", "test": "Pre-emergence herbicidal effect", "assay_type": "in vivo", "conditions": "3 weeks", "procedure,_shortened": "as §2"}, "[14]": {"system": "Echinochloa crus-galli", "test": "Pre-emergence herbicidal effect", "assay_type": "in vivo", "conditions": "3 weeks", "procedure,_shortened": "as §2"}, "[15]": {"system": "Alopecurus myosuroides", "test": "Pre-emergence herbicidal effect", "assay_type": "in vivo", "conditions": "3 weeks", "procedure,_shortened": "as §2"}, "[16]": {"system": "Polygonum convolvulus", "test": "Pre-emergence herbicidal effect", "assay_type": "in vivo", "conditions": "3 weeks", "procedure,_shortened": "as §2"}, "[17]": {"system": "Setaria viridis", "test": "Pre-emergence herbicidal effect", "assay_type": "in vivo", "conditions": "3 weeks", "procedure,_shortened": "as §2"}, "[18]": {"system": "Stellaria media", "test": "Pre-emergence herbicidal effect", "assay_type": "in vivo", "conditions": "3 weeks", "procedure,_shortened": "as §2"}, "[19]": {"system": "Avena fatua", "test": "Pre-emergence herbicidal effect", "assay_type": "in vivo", "conditions": "320 g/ha, 3 weeks", "procedure,_shortened": "as §2"}, "[20]": {"system": "Amaranthus retroflexus", "test": "Pre-emergence herbicidal effect", "assay_type": "in vivo", "conditions": "3 weeks", "procedure,_shortened": "as §2"}, "[21]": {"system": "Oryza sativa", "test": "Post-emergence herbicidal effect and crop plant compatibility", "assay_type": "in vivo", "conditions": "visual scoring after about 3 weeks", "procedure,_shortened": "as §1"}, "[22]": {"system": "Zea mays", "test": "Post-emergence herbicidal effect and crop plant compatibility", "assay_type": "in vivo", "conditions": "80 g/ha, visual scoring after about 3 weeks", "procedure,_shortened": "as §1"}, "[23]": {"system": "Oryza sativa", "test": "Pre-emergence herbicidal effect and crop plant compatibility", "assay_type": "in vivo", "conditions": "80 g/ha, 3 weeks", "procedure,_shortened": "as §2"}, "[24]": {"system": "Avena fatua", "test": "Post-emergence herbicidal effect", "assay_type": "in vivo", "conditions": "320 g/ha, visual scoring after about 3 weeks", "procedure,_shortened": "as §1"}, "[25]": {"system": "Cyperus esculentus", "test": "Pre-emergence herbicidal effect", "assay_type": "in vivo", "conditions": "320 g/ha, 3 weeks", "procedure,_shortened": "as §2"}}}
{"smiles": "Cc1ccc2c(c1)[C@H](Nc1ncc3c(n1)COCC3=O)[C@@H](C)C2", "note": "[2.97]", "values": [{"measurement": "post-emergence efficacy TRZAS", "setting": "[1]; 80 g/ha", "value": 0, "unit": "%"}, {"measurement": "post-emergence efficacy TRZAS", "setting": "[1]; 320 g/ha", "value": 0, "unit": "%"}, {"measurement": "logp (HCOOH)", "setting": "[2]", "value": "oily; logp (HCOOH): 3.26; 1H-NMR (CDCl3, 400 MHZ, δ in ppm): ): 1.25 (t, 3H,"}, {"measurement": "TRZAS herbicidal activity in percent", "setting": "[3]; 80 g/ha", "value": 10, "unit": "%"}, {"measurement": "TRZAS herbicidal activity in percent", "setting": "[3]; 320 g/ha", "value": 20, "unit": "%"}, {"measurement": "ZEAMX herbicidal activity in percent", "setting": "[4]", "value": 0, "unit": "%"}, {"measurement": "post-emergence efficacy LOLMU", "setting": "[5]", "value": 100, "unit": "%"}, {"measurement": "post-emergence efficacy ECHCG", "setting": "[6]; 80 g/ha", "value": 90, "unit": "%"}, {"measurement": "post-emergence efficacy ECHCG", "setting": "[6]; 320 g/ha", "value": 100, "unit": "%"}, {"measurement": "post-emergence efficacy ALOMY", "setting": "[7]", "value": 100, "unit": "%"}, {"measurement": "post-emergence efficacy SETVI", "setting": "[8]", "value": 80, "unit": "%"}, {"measurement": "post-emergence efficacy PHBPU", "setting": "[9]", "value": 100, "unit": "%"}, {"measurement": "VIOTR herbicidal activity in percent", "setting": "[10]; 80 g/ha", "value": 100, "unit": "%"}, {"measurement": "VIOTR herbicidal activity in percent", "setting": "[10]; 320 g/ha", "value": 100, "unit": "%"}, {"measurement": "LOLMU herbicidal activity in percent", "setting": "[11]; 320 g/ha", "value": 100, "unit": "%"}, {"measurement": "VERPE herbicidal activity in percent", "setting": "[12]; 80 g/ha", "value": 100, "unit": "%"}, {"measurement": "VERPE herbicidal activity in percent", "setting": "[12]; 320 g/ha", "value": 100, "unit": "%"}, {"measurement": "MATIN herbicidal activity in percent", "setting": "[13]; 80 g/ha", "value": 100, "unit": "%"}, {"measurement": "MATIN herbicidal activity in percent", "setting": "[13]; 320 g/ha", "value": 100, "unit": "%"}, {"measurement": "ECHCG herbicidal activity in percent", "setting": "[14]; 80 g/ha", "value": 100, "unit": "%"}, {"measurement": "ECHCG herbicidal activity in percent", "setting": "[14]; 320 g/ha", "value": 100, "unit": "%"}, {"measurement": "ALOMY herbicidal activity in percent", "setting": "[15]; 80 g/ha", "value": 100, "unit": "%"}, {"measurement": "ALOMY herbicidal activity in percent", "setting": "[15]; 320 g/ha", "value": 100, "unit": "%"}, {"measurement": "POLCO herbicidal activity in percent", "setting": "[16]; 80 g/ha", "value": 100, "unit": "%"}, {"measurement": "POLCO herbicidal activity in percent", "setting": "[16]; 320 g/ha", "value": 100, "unit": "%"}, {"measurement": "SETVI herbicidal activity in percent", "setting": "[17]; 80 g/ha", "value": 100, "unit": "%"}, {"measurement": "SETVI herbicidal activity in percent", "setting": "[17]; 320 g/ha", "value": 100, "unit": "%"}, {"measurement": "STEME herbicidal activity in percent", "setting": "[18]; 80 g/ha", "value": 100, "unit": "%"}, {"measurement": "STEME herbicidal activity in percent", "setting": "[18]; 320 g/ha", "value": 100, "unit": "%"}, {"measurement": "AVEFA herbicidal activity in percent", "setting": "[19]", "value": 100, "unit": "%"}, {"measurement": "AMARE herbicidal activity in percent", "setting": "[20]; 80 g/ha", "value": 100, "unit": "%"}, {"measurement": "AMARE herbicidal activity in percent", "setting": "[20]; 320 g/ha", "value": 100, "unit": "%"}]}
{"smiles": "O=C1CCCc2nc(N[C@@H]3CCCc4ccccc43)ncc21", "note": "[2.23]", "values": [{"measurement": "post-emergence efficacy TRZAS", "setting": "[1]; 80 g/ha", "value": 0, "unit": "%"}, {"measurement": "post-emergence efficacy TRZAS", "setting": "[1]; 320 g/ha", "value": 0, "unit": "%"}, {"measurement": "post-emergence efficacy ORYSA", "setting": "[21]; 80 g/ha", "value": 20, "unit": "%"}, {"measurement": "post-emergence efficacy ORYSA", "setting": "[21]; 320 g/ha", "value": 20, "unit": "%"}, {"measurement": "post-emergence efficacy ZEAMX", "setting": "[22]", "value": 0, "unit": "%"}, {"measurement": "TRZAS herbicidal activity in percent", "setting": "[3]; 80 g/ha", "value": 0, "unit": "%"}, {"measurement": "ORYSA herbicidal activity in percent", "setting": "[23]", "value": 5, "unit": "%"}, {"measurement": "ZEAMX herbicidal activity in percent", "setting": "[4]", "value": 0, "unit": "%"}, {"measurement": "post-emergence efficacy LOLMU", "setting": "[5]", "value": 100, "unit": "%"}, {"measurement": "post-emergence efficacy ECHCG", "setting": "[6]; 320 g/ha", "value": 90, "unit": "%"}, {"measurement": "post-emergence efficacy AVEFA", "setting": "[24]", "value": 100, "unit": "%"}, {"measurement": "post-emergence efficacy PHBPU", "setting": "[9]", "value": 80, "unit": "%"}, {"measurement": "VIOTR herbicidal activity in percent", "setting": "[10]; 80 g/ha", "value": 100, "unit": "%"}, {"measurement": "VIOTR herbicidal activity in percent", "setting": "[10]; 320 g/ha", "value": 100, "unit": "%"}, {"measurement": "LOLMU herbicidal activity in percent", "setting": "[11]; 80 g/ha", "value": 80, "unit": "%"}, {"measurement": "LOLMU herbicidal activity in percent", "setting": "[11]; 320 g/ha", "value": 100, "unit": "%"}, {"measurement": "VERPE herbicidal activity in percent", "setting": "[12]; 80 g/ha", "value": 100, "unit": "%"}, {"measurement": "VERPE herbicidal activity in percent", "setting": "[12]; 320 g/ha", "value": 100, "unit": "%"}, {"measurement": "MATIN herbicidal activity in percent", "setting": "[13]; 80 g/ha", "value": 100, "unit": "%"}, {"measurement": "MATIN herbicidal activity in percent", "setting": "[13]; 320 g/ha", "value": 100, "unit": "%"}, {"measurement": "ECHCG herbicidal activity in percent", "setting": "[14]; 80 g/ha", "value": 80, "unit": "%"}, {"measurement": "ECHCG herbicidal activity in percent", "setting": "[14]; 320 g/ha", "value": 100, "unit": "%"}, {"measurement": "ALOMY herbicidal activity in percent", "setting": "[15]; 80 g/ha", "value": 80, "unit": "%"}, {"measurement": "ALOMY herbicidal activity in percent", "setting": "[15]; 320 g/ha", "value": 100, "unit": "%"}, {"measurement": "POLCO herbicidal activity in percent", "setting": "[16]; 80 g/ha", "value": 100, "unit": "%"}, {"measurement": "POLCO herbicidal activity in percent", "setting": "[16]; 320 g/ha", "value": 100, "unit": "%"}, {"measurement": "CYPES herbicidal activity in percent", "setting": "[25]", "value": 90, "unit": "%"}, {"measurement": "SETVI herbicidal activity in percent", "setting": "[17]; 80 g/ha", "value": 100, "unit": "%"}, {"measurement": "SETVI herbicidal activity in percent", "setting": "[17]; 320 g/ha", "value": 100, "unit": "%"}, {"measurement": "STEME herbicidal activity in percent", "setting": "[18]; 80 g/ha", "value": 100, "unit": "%"}, {"measurement": "STEME herbicidal activity in percent", "setting": "[18]; 320 g/ha", "value": 100, "unit": "%"}, {"measurement": "AVEFA herbicidal activity in percent", "setting": "[19]", "value": 90, "unit": "%"}, {"measurement": "AMARE herbicidal activity in percent", "setting": "[20]; 80 g/ha", "value": 100, "unit": "%"}, {"measurement": "AMARE herbicidal activity in percent", "setting": "[20]; 320 g/ha", "value": 100, "unit": "%"}]}
